Consider seven compounds from patent US20080108611A1, “SUBSTITUTED THIENOPYRIMIDINE KINASE INHIBITORS” (priority 2006, published 2008).

Test [1] relates to A375 malignant melanoma. Description: Cell Proliferation Inhibition Assay (14C-thymidine incorporation), A375. The format is cell-based. To be noted: Homo sapiens, A-375; A375 cells. As to the method: (§1) The ability of a test compound to inhibit unregulated cell proliferation was determined by measuring incorporation of ^14C-labelled thymidine into newly synthesized DNA within cell lines derived from carcinomas originating from several tissues. Accordingly, the anti-proliferative effect of a compound on cells with a variety of phenotypes may be determined.
(§2) Carcinoma cell lines include those such as HeLa cervical adenocarcinoma (American Type Culture Collection (ATCC), Virginia, Cat. #CCL-2), A375 malignant melanoma (ATCC CRL-1619), SK-OV-3 ovarian adenocarcinoma (ATCC HTB-77), HCT-116 colon carcinoma (CCL-247), PC-3 prostate adenocarcinoma (ATCC CRL-1435), and MDA-MB-231 (Xenogen Corp.)
(§3) The carcinoma cells were trypsinized and counted. The cells (3000-8000 count) were added to each well of a 96-well CytoStar tissue culture treated scintillating microplate (Amersham #RPNQ0160) in complete medium (100 μL) and the plate was then incubated in complete medium for 24 hrs at 37° C. in an […] atmosphere containing 5% CO2. Test compound (1 μL) in 100% DMSO was added to the plate test-wells with DMSO only added to control-wells. The plate was incubated in complete medium for a second 24 hr period at 37° C. in an atmosphere containing 5% CO2.
(§4) An aliquot of a solution of methyl ^14C-thymidine (56 mC/mmol) (NEN #NEC568 or Amersham #CFA532) and complete medium (20 uL to provide 0.2 μCi/well) was then added to each well and the plate was incubated for a third 24 hr period at 37° C. in an atmosphere containing 5% CO2. The plate contents were then discarded, the plate was washed twice with PBS (200 μL) and then PBS (200 μL) was added to each well. The plate was sealed and the degree of methyl ^14C-thymidine incorporation was quantified on a Packard Top Count.

Test [2] has as its target T1, Aurora-A (Mus musculus, UniProt P97477).
T1 construct: followed by the full length protein encoding the murine Aurora-A; polyhistidine (N); made in house; host or cells: Sf9 insect cells
T1 sequence (P97477 1-395): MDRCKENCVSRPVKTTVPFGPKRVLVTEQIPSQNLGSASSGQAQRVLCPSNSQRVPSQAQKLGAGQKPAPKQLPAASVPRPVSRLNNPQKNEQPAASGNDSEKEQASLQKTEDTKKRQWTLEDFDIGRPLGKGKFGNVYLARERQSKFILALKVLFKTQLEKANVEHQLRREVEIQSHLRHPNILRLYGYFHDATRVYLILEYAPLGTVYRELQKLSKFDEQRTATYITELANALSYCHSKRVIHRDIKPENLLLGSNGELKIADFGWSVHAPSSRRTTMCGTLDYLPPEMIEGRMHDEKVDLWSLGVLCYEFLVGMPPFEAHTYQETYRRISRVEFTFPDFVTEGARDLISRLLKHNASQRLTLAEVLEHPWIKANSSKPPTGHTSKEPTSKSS
Description: Aurora-A Screening Assay. The format is biochemical. To be noted: murine Aurora-A full length, 10 μM ATP. The protocol:
(§5) A kinase reaction mixture was prepared containing 50 mM Tris-HCl at pH 8, 10 mM MgCl2, 0.1 mM Na3PO4, 1 mM DTT, 10 μM ATP, 0.025 μM biotinylated histone-H1 peptide substrate and 0.2 μCuries per well ^33P-γ-ATP (2000-3000 Ci/mmol). 70 μL of the kinase reaction mixture was dispensed into the well of a Streptavidin FlashPlate.
(§6) Test compound stock in 100% DMSO (1 μL) was added to the wells resulting in a final concentration of 1% DMSO in the reaction with a 100 μL final reaction volume. Each enzyme was diluted in 50 mM Tris-HCl pH=8.0, 0.1% BSA and 30 μL was added to each well to initiate the reaction. The reaction was incubated for one hour at 30° C. At the end of the 1 hr incubation, the reaction was terminated by aspirating the mixture from the plate and washing the wells twice with PBS containing 100 mM EDTA. The biotinylated peptide substrate became immobilized on the Flashplate™ and the incorporation of ^33P-γ-ATP was measured by reading the plate on a scintillation counter. Inhibition of the enzymatic activity was measured by observing a reduced amount of ^33P-γ-ATP incorporated into the immobilized peptide.
Aurora-A is a fusion protein containing a polyhistidine tag at the N terminus followed by the full length protein encoding the murine Aurora-A (Accession number GB BC014711) expressed and purified from sf9 insect cells. The assay used 400 ng of the N-terminal biotinylated peptide biotin-GRTGRRNSI-amide (Aurora-A) per well.
(§7) The IC50 was derived according to the procedure described in Example 1.

The target of test [3] is T2, VEGF-R2 (Rattus norvegicus, UniProt O08775).
T2 construct: polyhistidine (N)
T2 sequence (O08775 786-1343): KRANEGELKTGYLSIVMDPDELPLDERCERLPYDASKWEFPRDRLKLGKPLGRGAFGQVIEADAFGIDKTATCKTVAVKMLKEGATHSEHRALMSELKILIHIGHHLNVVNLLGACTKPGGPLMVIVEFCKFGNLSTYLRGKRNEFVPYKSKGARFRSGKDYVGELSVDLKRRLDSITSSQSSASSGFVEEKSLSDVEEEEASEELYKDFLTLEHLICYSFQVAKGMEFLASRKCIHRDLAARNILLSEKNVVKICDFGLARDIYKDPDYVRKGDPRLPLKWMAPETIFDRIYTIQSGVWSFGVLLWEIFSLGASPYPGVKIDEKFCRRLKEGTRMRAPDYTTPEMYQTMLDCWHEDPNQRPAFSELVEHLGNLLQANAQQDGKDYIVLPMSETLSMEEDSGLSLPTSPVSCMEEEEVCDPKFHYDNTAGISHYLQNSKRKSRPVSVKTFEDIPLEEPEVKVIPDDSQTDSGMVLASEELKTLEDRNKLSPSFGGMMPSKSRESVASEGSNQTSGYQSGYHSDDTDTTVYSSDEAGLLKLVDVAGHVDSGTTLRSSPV
Description: VEGF-R2 Screening Assay. The format is biochemical. To be noted: rat VEGF-R2 kinase domain, 10 μM ATP. The protocol: as §5, §6
The VEGF-R2 enzyme is a fusion protein containing a polyhistidine tag at the N terminus followed by amino acids 786 to 1343 of the rat VEGF-R2 kinase domain (Accession number U93306). The assay used 150 ng of the N-terminal biotinylated peptide biotin-KHKKLAEGSAYEEV-amide (VEGF-R2) per well.
as §7

Test [4] deals with HeLa cervical adenocarcinoma. Description: Cell Proliferation Inhibition Assay (14C-thymidine incorporation), HeLa. The format is cell-based. To be noted: Homo sapiens; HeLa cells. As to the method:
as §1, §2, §3, §4

Test [5] concerns HCT-116 colon carcinoma. Description: Cell Proliferation Inhibition Assay (14C-thymidine incorporation), HCT116. The format is cell-based. To be noted: Homo sapiens, HCT116 cells. As to the method:
as §1, §2, §3, §4

Test [6] concerns the target T3, Lyn kinase (Homo sapiens, UniProt P07948).
T3 construct: purchased Upstate Biotechnology, Lake Placid, N.Y
Description: Lyn Kinase Assay. The format is biochemical. To be noted: test concentration of 2 μM; read-out: Lyn Inhibition (%) Inh. The protocol: A mixture of a 10× kinase buffer (500 mM MOPS at pH 7.5, 1 mM EGTA, 1 mM Sodium Vanadate, 1% β-mercaptoethanol and 100 mM Magnesium Acetate), ATP (5 μM final from a 10 mM stock), polyGluTyr (0.1 mg/mL final from a 1 mg/mL stock), γ-^33P ATP (10 μCi/μL stock) and water (20 μL/well) was added to each well of a Streptavidin Flashplate.
Test compound in 100% DMSO (0.5 μL) was added to the appropriate wells. Diluted Lyn kinase (human) (Upstate Biotechnology, Lake Placid, N.Y.) (diluted in a buffer consisting of 50 mM Tris at pH 7.5, 0.1 mM EGTA, Sodium Vanadate (0.1 mM), 13-mercaptoethanol (0.1%) and 1 mg/mL bovine serum albumin) (2.5 μL) was added to the wells to initiate the reactions.
The reaction plates were incubated at 30° C. for 40 min. The reaction was terminated by the addition of a 3% phosphoric acid solution (5 μL). The reaction product (10 μL) was spotted onto a P30 filtermat and washed for 5 minutes in phosphoric acid (75 mM). The wash sequence was repeated two more times, followed with one final wash in methanol. The plates were then dried, sealed and read on the TopCount scintillation counter after adding 30 μL scintillation fluid. Percent inhibition was derived according to the procedure described in Example 1. The percent inhibition results are shown in Table 4 at a test concentration of 2 μM.

A value given as a limit tells only on which side of the number the result lay.

T3 sequence (P07948 whole entry): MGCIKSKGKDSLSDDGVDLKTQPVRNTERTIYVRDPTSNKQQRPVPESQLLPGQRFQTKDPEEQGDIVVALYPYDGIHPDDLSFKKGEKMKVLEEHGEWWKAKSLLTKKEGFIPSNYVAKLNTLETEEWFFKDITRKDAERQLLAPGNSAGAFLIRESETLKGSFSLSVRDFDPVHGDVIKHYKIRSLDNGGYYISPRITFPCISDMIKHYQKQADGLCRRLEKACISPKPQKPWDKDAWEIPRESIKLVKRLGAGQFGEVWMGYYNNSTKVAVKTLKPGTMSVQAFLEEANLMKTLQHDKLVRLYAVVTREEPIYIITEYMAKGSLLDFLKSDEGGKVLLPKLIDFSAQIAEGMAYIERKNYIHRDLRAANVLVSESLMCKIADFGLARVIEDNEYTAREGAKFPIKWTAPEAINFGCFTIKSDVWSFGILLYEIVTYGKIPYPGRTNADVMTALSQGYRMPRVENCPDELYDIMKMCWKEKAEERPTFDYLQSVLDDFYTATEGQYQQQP

For orientation: IC50 means the point on the concentration scale where inhibition reaches its midpoint. One may read the inhibition as the relative decrease from the control value, in per cent. For `Cc1cc2c(F)c(Oc3ncnc4sc(C(=O)NCCN5CCOCC5)c(C)c34)ccc2[nH]1` [Cpd 19, 4-(4-fluoro-2-methyl-1H-indol-5-yloxy)-5-methyl-thieno[2,3-d]pyrimidine-6-carboxylic acid (2-morpholin-4-yl-ethyl)-amide], the IC50 is greater than 10 µM in test [1]; greater than 100 µM in test [2]; 0.248 µM in test [3]; greater than 10 µM in test [4]; greater than 10 µM in test [5]. The inhibition at 2 µM in test [6] was determined as 16%.
Regarding `Cc1cc2c(F)c(Oc3ncnc4sc(C(=O)Nc5ccc(CN6CCOCC6)cc5)c(C)c34)ccc2[nH]1` [Cpd 20, 4-(4-fluoro-2-methyl-1H-indol-5-yloxy)-5-methyl-thieno[2,3-d]pyrimidine-6-carboxylic acid (4-morpholin-4-ylmethyl-phenyl)-amide], the IC50 was greater than 10 µM in test [1]; greater than 100 µM in test [2]; 0.761 µM in test [3]; greater than 10 µM in test [4]; greater than 10 µM in test [5]. For the same compound, the inhibition at 2 µM in test [6] was determined as 20%.
With `Cc1cc2c(F)c(Oc3ncnc4sc(C(=O)NCCN5CCCCC5)c(C)c34)ccc2[nH]1` [Cpd 21, 4-(4-fluoro-2-methyl-1H-indol-5-yloxy)-5-methyl-thieno[2,3-d]pyrimidine-6-carboxylic acid (2-piperidin-1-yl-ethyl)-amide], the IC50 is 1.5 µM in test [1]; greater than 100 µM in test [2]; 0.393 µM in test [3]; 8.5 µM in test [4]; 9.4 µM in test [5]. The inhibition at 2 µM in test [6] was 8%.
In the case of `Cc1cc2c(F)c(Oc3ncnc4sc(C(=O)NCCN5CCCC5)c(C)c34)ccc2[nH]1` [Cpd 22, 4-(4-fluoro-2-methyl-1H-indol-5-yloxy)-5-methyl-thieno[2,3-d]pyrimidine-6-carboxylic acid (2-pyrrolidin-1-yl-ethyl)-amide], the IC50 is 2.2 µM in test [1]; greater than 100 µM in test [2]; 0.619 µM in test [3]; 15.2 µM in test [4]; 22.3 µM in test [5]. Moreover, in test [6], the inhibition at 2 µM is -2%.
Turning to `Cc1c(C(=O)Nc2ccc(CN3CCOCC3)cc2)sc2ncnc(Nc3ccc(Oc4ccccc4)cc3)c12` [Cpd 23, 5-methyl-4-(4-phenoxy-phenylamino)-thieno[2,3-d]pyrimidine-6-carboxylic acid (4-morpholin-4-ylmethyl-phenyl)-amide], the IC50 was 2.9 µM in test [1]; greater than 100 µM in test [2]; greater than 100 µM in test [3]; greater than 10 µM in test [4]; 7.1 µM in test [5]. For the same compound, the inhibition at 2 µM in test [6] came to 9%.
Take `Cc1c(C(=O)NCCN2CCOCC2)sc2ncnc(Nc3ccc(Oc4ccccc4)cc3)c12` [Cpd 24]: the IC50 is greater than 10 µM in test [1]; greater than 100 µM in test [2]; roughly 100 µM in test [3]; greater than 100 µM in test [4]; greater than 10 µM in test [5]. In addition, in test [6], the inhibition at 2 µM was 23%.
Take `COCCNC(=O)c1sc2ncnc(Oc3ccc4[nH]c(C)cc4c3F)c2c1C` [Cpd 27, 4-(4-fluoro-2-methyl-1H-indol-5-yloxy)-5-methyl-thieno[2,3-d]pyrimidine-6-carboxylic acid (2-methoxy-ethyl)-amide]: the IC50 was greater than 10 µM in test [1]; greater than 10 µM in test [2]; 0.378 µM in test [3]; greater than 10 µM in test [4]; greater than 10 µM in test [5]. In test [6], the inhibition at 2 µM stood at 23%.
